Counter-ions that a name gives are not always drawn. Like-named read-outs stand apart in the source and are kept apart here.
Biological target: T1, DPP IV (Felis catus, UniProt Q9N2I7)
T1 construct: Blood samples for the determination of this compound and DPP IV activity were collected; from tissue; host or cells: plasma of domestic short hair / purpose-bred cats dosed orally
Experiment: Exploratory multiple dose PK/PD (1.0/3.0/9.0 mg/animal, 14 days) in cats: DPP IV activity
Format: in vivo, cat
Conditions: once daily oral 14 days, read-out: DPP IV activity in cat plasma; for response vs control in vivo at 1 mg/animal: head 1 mg/animal (title 1.0 mg/animal); for response vs control in vivo at 3 mg/animal: head 3 mg/animal (title 3.0 mg/animal); for response vs control in vivo at 9 mg/animal: head 9 mg/animal (title 9.0 mg/animal)
Experimental: The aim of this study was to investigate the PK/PD effects of 1-[(3-cyano-pyridin-2-yl)methyl]-3-methyl-7-(2-butyn-1-yl)-8-[3-(R)-amino-piperidin-1-yl]-xanthine in cats following repeated oral administration of 0, 1, 3 and 9 mg/animal over 14 days corresponding to a dose of 0, 0.25, 0.75 and 2.25 mg/kg body weight for a cat weighing 4 kg. (Dosages were based on the free base: 1 mg 1-[(3-cyano-pyridin-2-yl)methyl]-3-methyl-7-(2-butyn-1-yl)-8-[3-(R)-amino-piperidin-1-yl]-xanthine monohydrochloride corresponds to 0.923 mg 1-[(3-cyano-pyridin-2-yl)methyl]-3-methyl-7-(2-butyn-1-yl)-8-[3-(R)-amino-piperidin-1-yl]-xanthine free base).
For this purpose, twelve clinically healthy male adult domestic short hair cats with a body weight range of 3.5-4.8 kg were used. The animals were randomly allocated to 4 groups, 3 animals per group. All animals were treated once daily orally for 14 days (i.e. on days 0-13). The test article was administered via capsules at doses of 1 (group II), 3 (group III) or 9 (group IV) mg of the monohydrochloride compound per animal; group I received placebo serving as controls. Blood samples for PK and PD (DPP IV activity) investigations were drawn at 0 h (i.e. prior to the 1st treatment), 0.5, 1, 2, 4, 8, 12 and 24 h after the 1st treatment as well as 24 h after the 3rd, 5th, 7th, 9th, 11th and 13th treatment and 0.5, 1, 2, 4, 8, 12 and 24 h after the 14th treatment.

T1 sequence (Q9N2I7 38-765 limits assumed): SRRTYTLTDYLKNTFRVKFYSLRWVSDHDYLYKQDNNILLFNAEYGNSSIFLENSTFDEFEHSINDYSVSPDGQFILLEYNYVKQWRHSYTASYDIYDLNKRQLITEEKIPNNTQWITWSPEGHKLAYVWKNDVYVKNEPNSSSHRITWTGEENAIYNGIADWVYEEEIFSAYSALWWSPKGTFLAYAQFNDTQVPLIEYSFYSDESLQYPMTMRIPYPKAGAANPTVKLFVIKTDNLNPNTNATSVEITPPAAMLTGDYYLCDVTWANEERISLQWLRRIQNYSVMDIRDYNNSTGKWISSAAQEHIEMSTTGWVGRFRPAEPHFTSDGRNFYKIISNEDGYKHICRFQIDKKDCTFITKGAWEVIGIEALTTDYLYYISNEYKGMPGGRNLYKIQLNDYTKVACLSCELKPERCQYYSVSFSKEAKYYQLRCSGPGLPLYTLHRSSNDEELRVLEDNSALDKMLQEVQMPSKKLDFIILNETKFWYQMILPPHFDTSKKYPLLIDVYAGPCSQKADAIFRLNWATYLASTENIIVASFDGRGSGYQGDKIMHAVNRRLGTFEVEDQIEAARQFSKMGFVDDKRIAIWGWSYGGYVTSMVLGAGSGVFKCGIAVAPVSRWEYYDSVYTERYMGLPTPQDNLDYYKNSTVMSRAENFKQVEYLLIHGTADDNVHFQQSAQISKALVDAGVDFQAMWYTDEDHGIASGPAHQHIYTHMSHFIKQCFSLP

CC#CCn1c(N2CCC[C@@H](N)C2)nc2c1c(=O)n(Cc1ncccc1C#N)c(=O)n2C [1-[(3-cyano-pyridin-2-yl)methyl]-3-methyl-7-(2-butyn-1-yl)-8-[3-(R)-amino-piperidin-1-yl]-xanthine monohydrochloride]
response vs control in vivo at 1 mg/animal (0.5 h, 0.5 h): 31.3% | response vs control in vivo at 3 mg/animal (0.5 h, 0.5 h): 16% | response vs control in vivo at 9 mg/animal (0.5 h, 0.5 h): 8% | response vs control in vivo at 1 mg/animal (1 h, 1 h): 8.7% | response vs control in vivo at 3 mg/animal (1 h, 1 h): 10.3% | response vs control in vivo at 9 mg/animal (1 h, 1 h): 7.3% | response vs control in vivo at 1 mg/animal (2 h, 2 h): 9.7% | response vs control in vivo at 3 mg/animal (2 h, 2 h): 8% | response vs control in vivo at 9 mg/animal (2 h, 2 h): 7% | response vs control in vivo at 1 mg/animal (4 h, 4 h): 11.7% | response vs control in vivo at 3 mg/animal (4 h, 4 h): 8% | response vs control in vivo at 9 mg/animal (4 h, 4 h): 8% | response vs control in vivo at 1 mg/animal (8 h, 8 h): 17% | response vs control in vivo at 3 mg/animal (8 h, 8 h): 11.3% | response vs control in vivo at 9 mg/animal (8 h, 8 h): 9.3% | response vs control in vivo at 1 mg/animal (12 h, 12 h): 28% | response vs control in vivo at 3 mg/animal (12 h, 12 h): 14% | response vs control in vivo at 9 mg/animal (12 h, 12 h): 10.7% | response vs control in vivo at 1 mg/animal (24 h, 24 h): 57.7% | response vs control in vivo at 3 mg/animal (24 h, 24 h): 31.7% | response vs control in vivo at 9 mg/animal (24 h, 24 h): 18% | response vs control in vivo at 1 mg/animal (72 h, 72 h): 35.3% | response vs control in vivo at 3 mg/animal (72 h, 72 h): 23.3% | response vs control in vivo at 9 mg/animal (72 h, 72 h): 14.3% | response vs control in vivo at 1 mg/animal (120 h, 120 h): 63% | response vs control in vivo at 3 mg/animal (120 h, 120 h): 31.7% | response vs control in vivo at 9 mg/animal (120 h, 120 h): 17.7% | response vs control in vivo at 1 mg/animal (168 h, 168 h): 54% | response vs control in vivo at 3 mg/animal (168 h, 168 h): 41% | response vs control in vivo at 9 mg/animal (168 h, 168 h): 14.7% | response vs control in vivo at 1 mg/animal (216 h, 216 h): 57% | response vs control in vivo at 3 mg/animal (216 h, 216 h): 31.7% | response vs control in vivo at 9 mg/animal (216 h, 216 h): 15% | response vs control in vivo at 1 mg/animal (264 h, 264 h): 32.7% | response vs control in vivo at 3 mg/animal (264 h, 264 h): 19.3% | response vs control in vivo at 9 mg/animal (264 h, 264 h): 14% | response vs control in vivo at 1 mg/animal (312 h, 312 h): 61.3% | response vs control in vivo at 3 mg/animal (312 h, 312 h): 34% | response vs control in vivo at 9 mg/animal (312 h, 312 h): 17.3% | response vs control in vivo at 1 mg/animal (312.5 h, 312.5 h): 14% | response vs control in vivo at 3 mg/animal (312.5 h, 312.5 h): 9% | response vs control in vivo at 9 mg/animal (312.5 h, 312.5 h): 10% | response vs control in vivo at 1 mg/animal (313 h, 313 h): 14% | response vs control in vivo at 3 mg/animal (313 h, 313 h): 8.3% | response vs control in vivo at 9 mg/animal (313 h, 313 h): 7.7% | response vs control in vivo at 1 mg/animal (314 h, 314 h): 13.3% | response vs control in vivo at 3 mg/animal (314 h, 314 h): 8.7% | response vs control in vivo at 9 mg/animal (314 h, 314 h): 7.7% | response vs control in vivo at 1 mg/animal (316 h, 316 h): 14.7% | response vs control in vivo at 3 mg/animal (316 h, 316 h): 9.7% | response vs control in vivo at 9 mg/animal (316 h, 316 h): 8% | response vs control in vivo at 1 mg/animal (320 h, 320 h): 22.3%

— patent US20140228287A1, “1-[(3-CYANO-PYRIDIN-2-YL)METHYL]-3-METHYL-7-(2-BUTYN-1-YL)-8-[3-(R)-AMINO-PIPERIDIN-1-YL]-AXANTHINE FOR THE TREATMENT OF A METABOLIC DISORDER OF A PREDOMINANTLY CARNIVOROUS NON-HUMAN ANIMAL” (BOEHRINGER INGELHEIM VETMEDICA GMBH, priority 2010, published 2014)
